Laboratory results as given in patent US12110294B2, “CD73 compounds” (Gilead Sciences, Inc., priority 2020, dated 2024).
Read-outs that look alike come from different tables or passages of the source.

How the values were obtained:
CD73 [1] = target: T1, CD73 (Homo sapiens, UniProt P21589); type: biochemical; details: 1 mM NaH2PO4 in enzyme buffer, final AMP 15 uM, final CD73 0.3 nM
T1 construct: purchased R&D system
T1 sequence (P21589 27-549): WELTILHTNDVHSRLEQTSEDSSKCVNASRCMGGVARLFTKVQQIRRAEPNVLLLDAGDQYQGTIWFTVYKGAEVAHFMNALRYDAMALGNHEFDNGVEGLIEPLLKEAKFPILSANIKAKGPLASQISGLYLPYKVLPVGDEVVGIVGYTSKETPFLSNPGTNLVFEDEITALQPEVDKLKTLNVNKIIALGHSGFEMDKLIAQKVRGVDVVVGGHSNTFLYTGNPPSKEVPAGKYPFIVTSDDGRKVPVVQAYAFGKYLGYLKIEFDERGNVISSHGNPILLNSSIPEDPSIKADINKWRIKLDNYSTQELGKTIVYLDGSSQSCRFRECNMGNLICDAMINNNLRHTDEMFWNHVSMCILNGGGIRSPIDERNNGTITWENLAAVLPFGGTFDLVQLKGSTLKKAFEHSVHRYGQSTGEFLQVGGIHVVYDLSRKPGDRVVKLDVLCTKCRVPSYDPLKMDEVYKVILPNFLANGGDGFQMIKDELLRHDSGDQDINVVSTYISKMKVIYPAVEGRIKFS

[2] = target: T2, CD73 activity in MDA-MB-231-GFP cells (Homo sapiens, UniProt P21589); assay: MDA-MB-231 Cell Based CD73 Activity Assay; details: 10000 cells per well, RPMI medium with 10% human plasma, overnight compound treatment, AMP 200 μM
T2 construct: endogenous in cells; host or cells: MDA-MB-231-GFP cells
T2 sequence (P21589 27-549): T1 sequence (P21589 27-549)
Experimental: MDA-MB-231 Cell Based CD73 Activity Assay
MDA-MB-231-GFP cells were seeded in 384-well plates (Greiner 781946) at a density of 10000 cells per well in 50 μL of RPMI medium with 10% HP (human plasma). Cells were plated into assay plate with compounds pre-spotted, for an overnight compound treatment. 50 μL of 400 μM AMP (final concentration 200 μM) using a Bio-tek dispenser. Plates were incubated for 100 mins. […] The samples were run using Rapid fire.

[3] = target: T2, CD73 activity in MDA-MB-231-GFP cells; assay: MDA-MB-231 Cell Based CD73 Activity Assay (DMEM); details: 3000 cells per well, DMEM medium with 10% human plasma, overnight compound treatment, AMP 200 uM
CD73 [4] = target: T1, CD73; assay: CD73 Biochemical IC50 Assay; details: final AMP 15 uM, final CD73 0.3 nM, 25 mM Tris pH 7.4, 5 mM MgCl2, no phosphate
Experimental: CD73 Biochemical IC50 Assay
Compound serial dilutions were pre-spotted into Thermo Nunc assay plate. 50 μL CD73 enzyme buffer (CD73 purchased from R&D system=0.6 nM, 25 mM Tris, pH 7.4, 5 mM MgCl2) was added into the assay plate and incubated for 15 mins. […] The samples were run using Rapid fire.

Row | IC50 (CD73 [1]) [nM] | EC50 [2] [nM] | EC50 [3] [nM] | IC50 (CD73 [4]) [nM] | Structure (SMILES)
1 | 2.08 | 2.56 | 5.11 | 2.36 | O=c1[nH]cc(-c2cc([C@@H]3C[C@H]3c3ccc(F)cc3)c3nccn3n2)c(=O)[nH]1 (racemic) [Example 30, 5-(8-((1S,2S)-2-(4-fluorophenyl)cyclopropyl)imidazo[1,2-b]pyridazin-6-yl)pyrimidine-2,4(1H,3H)-dione and 5-(8-((1R,2R)-2-(4-fluorophenyl)cyclopropyl)imidazo[1,2-b]pyridazin-6-yl)pyrimidine-2,4(1H,3H)-dione]
2 | 0.93 | 3.84 | 4.83 | 5.49 | O=c1[nH]cc(-c2cc([C@@H]3C[C@H]3c3ccc(F)cc3F)c3nccn3n2)c(=O)[nH]1 (racemic) [Example 31, 5-(8-((1S,2S)-2-(2,4-difluorophenyl)cyclopropyl)imidazo[1,2-b]pyridazin-6-yl)pyrimidine-2,4(1H,3H)-dione and 5-(8-((1R,2R)-2-(2,4-difluorophenyl)cyclopropyl)imidazo[1,2-b]pyridazin-6-yl)pyrimidine-2,4(1H,3H)-dione]
3 | 0.93 | 2.04 | 4.71 | 9.38 | O=c1[nH]cc(-c2cc([C@@H]3C[C@H]3c3ccc(F)c(F)c3)c3nccn3n2)c(=O)[nH]1 (racemic) [Example 33, 5-(8-((1S,2S)-2-(3,4-difluorophenyl)cyclopropyl)imidazo[1,2-b]pyridazin-6-yl)pyrimidine-2,4(1H,3H)-dione and 5-(8-((1R,2R)-2-(3,4-difluorophenyl)cyclopropyl)imidazo[1,2-b]pyridazin-6-yl)pyrimidine-2,4(1H,3H)-dione]
4 | 1.37 | 2.45 | 5.84 | 10.7 | N#Cc1cccc([C@H]2C[C@@H]2c2cc(-c3c[nH]c(=O)[nH]c3=O)nn3ccnc23)c1 [Example 50, 3-((1S,2S)-2-(6-(2,4-dioxo-1,2,3,4-tetrahydropyrimidin-5-yl)imidazo[1,2-b]pyridazin-8-yl)cyclopropyl)benzonitrile]
